Test results from ChEMBL document CHEMBL1145534 (2007).
≈ marks a conversion by molar mass, not a printed value.

What was measured:
Assay type in all cases: functional
[1] = test system: Enterococcus casseliflavus; assay: Antimicrobial activity against Enterococcus casseliflavus at 1 ug/ml by broth microdilution method
[2] = test system: Streptococcus constellatus; assay: Antimicrobial activity against viridans group Streptococcus constellatus at <= 0.06 ug/ml by broth microdilution method
Streptococcus mitis = assay: Antimicrobial activity against viridans group Streptococcus mitis at 1 ug/ml by broth microdilution method
[3] = test system: Streptococcus parasanguinis; assay: Antimicrobial activity against viridans group Streptococcus parasanguis at 0.25 ug/ml by broth microdilution method
Enterococcus raffinosus [4] = assay: Antimicrobial activity against Enterococcus raffinosus at <= 0.06 ug/ml by broth microdilution method
[5] = test system: Streptococcus intermedius; assay: Antimicrobial activity against viridans group Streptococcus intermedius at <= 0.06 ug/ml by broth microdilution method
Enterococcus avium = assay: Antimicrobial activity against Enterococcus avium at 1 ug/ml by broth microdilution method
Streptococcus mutans [6] = assay: Antimicrobial activity against viridans group Streptococcus mutans at 0.5 ug/ml by broth microdilution method
Corynebacterium striatum [7] = assay: Antimicrobial activity against Corynebacterium striatum at 0.5 ug/ml by broth microdilution method
[8] = test system: Streptococcus constellatus; assay: Antimicrobial activity against viridans group Streptococcus constellatus by broth microdilution method
Corynebacterium striatum [9] = assay: Antimicrobial activity against Corynebacterium striatum at <= 0.06 ug/ml by broth microdilution method
Streptococcus gordonii = assay: Antimicrobial activity against viridans group Streptococcus gordonii by broth microdilution method
Corynebacterium striatum [10] = assay: Antimicrobial activity against Corynebacterium striatum by broth microdilution method
Corynebacterium jeikeium [11] = assay: Antimicrobial activity against Corynebacterium jeikeium at 1 ug/ml by broth microdilution method
Corynebacterium sp. [12] = assay: Antimicrobial activity against Corynebacterium spp. at 0.12 ug/ml by broth microdilution method
Aerococcus [13] = assay: Antimicrobial activity against Aerococcus spp. at 0.25 ug/ml by broth microdilution method
Aerococcus [14] = assay: Antimicrobial activity against Aerococcus spp. at <= 0.06 ug/ml by broth microdilution method
Streptococcus sanguinis [15] = assay: Antimicrobial activity against viridans group Streptococcus sanguinis at 1 ug/ml by broth microdilution method
Corynebacterium sp. [16] = assay: Antimicrobial activity against Corynebacterium spp. at 2 ug/ml by broth microdilution method
Rothia mucilaginosa [17] = assay: Antimicrobial activity against Rothia mucilaginosa at 1 ug/ml by broth microdilution method
Aerococcus [18] = assay: Antimicrobial activity against Aerococcus spp. at 1 ug/ml by broth microdilution method
Corynebacterium jeikeium [19] = assay: Antimicrobial activity against Corynebacterium jeikeium at 0.5 ug/ml by broth microdilution method
Listeria monocytogenes = assay: Antimicrobial activity against Listeria monocytogenes at 2 ug/ml by broth microdilution method
[20] = test system: Corynebacterium amycolatum; assay: Antimicrobial activity against Corynebacterium amycolatum at 0.25 ug/ml by broth microdilution method
[21] = test system: Streptococcus intermedius; assay: Antimicrobial activity against viridans group Streptococcus intermedius at 0.12 ug/ml by broth microdilution method
Rothia mucilaginosa [22] = assay: Antimicrobial activity against Rothia mucilaginosa by broth microdilution method
Streptococcus oralis = assay: Antimicrobial activity against viridans group Streptococcus oralis at 0.12 ug/ml by broth microdilution method
Bacillus sp. [23] = assay: Antimicrobial activity against Bacillus spp. at 0.12 ug/ml by broth microdilution method; conditions: Bacillus sp. (in: firmicutes)
Bacillus sp. [24] = assay: Antimicrobial activity against Bacillus spp. at 0.25 ug/ml by broth microdilution method; conditions: Bacillus sp. (in: firmicutes)
Streptococcus mutans [25] = assay: Antimicrobial activity against viridans group Streptococcus mutans by broth microdilution method
[26] = test system: Corynebacterium pseudodiphtheriticum; assay: Antimicrobial activity against Corynebacterium pseudodiphtheriticum by broth microdilution method
Enterococcus raffinosus [27] = assay: Antimicrobial activity against Enterococcus raffinosus at 0.25 ug/ml by broth microdilution method
Streptococcus sanguinis [28] = assay: Antimicrobial activity against viridans group Streptococcus sanguinis at 0.5 ug/ml by broth microdilution method
Enterococcus hirae = assay: Antimicrobial activity against Enterococcus hirae at 0.12 ug/ml by broth microdilution method
Enterococcus durans = assay: Antimicrobial activity against Enterococcus durans at 0.5 ug/ml by broth microdilution method

CC(=O)NC[C@H]1CN(c2ccc(N3CCOCC3)c(F)c2)C(=O)O1 [LINEZOLID]
inhibition at 1 µg/mL [1]: 23.1%
Inhibition [2]: 1.1%
inhibition at 1 µg/mL (Streptococcus mitis): 99.1%
inhibition at 0.25 µg/mL [3]: 0%
Inhibition (Enterococcus raffinosus [4]): 0%
Inhibition [5]: 0%
inhibition at 1 µg/mL (Enterococcus avium): 52.6%
inhibition at 0.5 µg/mL (Streptococcus mutans [6]): 36.8%
inhibition at 0.5 µg/mL (Corynebacterium striatum [7]): 100%
MIC50 [8]: 1 µg/mL (≈ 2.96 µM)
MIC90 [8]: 1 µg/mL (≈ 2.96 µM)
Inhibition (Corynebacterium striatum [9]): 0%
MIC50 (Streptococcus gordonii): 1 µg/mL (≈ 2.96 µM)
MIC90 (Streptococcus gordonii): 1 µg/mL (≈ 2.96 µM)
MIC50 (Corynebacterium striatum [10]): 0.25 µg/mL (≈ 0.741 µM)
MIC90 (Corynebacterium striatum [10]): 0.5 µg/mL (≈ 1.48 µM)
inhibition at 1 µg/mL (Corynebacterium jeikeium [11]): 100%
inhibition at 0.12 µg/mL (Corynebacterium sp. [12]): 13.6%
inhibition at 0.25 µg/mL (Aerococcus [13]): 4.5%
Inhibition (Aerococcus [14]): 0%
inhibition at 1 µg/mL (Streptococcus sanguinis [15]): 97.9%
inhibition at 2 µg/mL (Corynebacterium sp. [16]): 100%
inhibition at 1 µg/mL (Rothia mucilaginosa [17]): 94.4%
inhibition at 1 µg/mL (Aerococcus [18]): 63.6%
inhibition at 0.5 µg/mL (Corynebacterium jeikeium [19]): 98.3%
inhibition at 2 µg/mL (Listeria monocytogenes): 100%
inhibition at 0.25 µg/mL [20]: 100%
inhibition at 0.12 µg/mL [21]: 0%
MIC50 (Rothia mucilaginosa [22]): 0.5 µg/mL (≈ 1.48 µM)
MIC90 (Rothia mucilaginosa [22]): 1 µg/mL (≈ 2.96 µM)
inhibition at 0.12 µg/mL (Streptococcus oralis): 0.7%
inhibition at 0.12 µg/mL (Bacillus sp. [23]): 0.7%
inhibition at 0.25 µg/mL (Bacillus sp. [24]): 4.9%
MIC50 (Streptococcus mutans [25]): 1 µg/mL (≈ 2.96 µM)
MIC90 (Streptococcus mutans [25]): 2 µg/mL (≈ 5.93 µM)
MIC50 [26]: 0.5 µg/mL (≈ 1.48 µM)
MIC90 [26]: 0.5 µg/mL (≈ 1.48 µM)
inhibition at 0.25 µg/mL (Enterococcus raffinosus [27]): 0%
inhibition at 0.5 µg/mL (Streptococcus sanguinis [28]): 36.6%
inhibition at 0.12 µg/mL (Enterococcus hirae): 0%
inhibition at 0.5 µg/mL (Enterococcus durans): 8.2%
